Data as given in DBAASP.
≈ marks a conversion by molar mass, not a printed value. Where “and” joins values, the source holds several entries; their conditions need not be identical. Equal values may be shown once. Each block holds one molecule with its values, some of them ahead of it.

How the values were obtained:
Experiment in all cases: ≥ marks a high value that may be exact or a test limit, other limits are often not marked, values filed in µg/mL are converted to µM
[1] = system: Bacillus subtilis ATCC 6051
[2] = system: Escherichia coli NEB5alpha
[3] = system: Escherichia coli K12 MG1655
[4] = system: Staphylococcus aureus ST88
Bacillus subtilis 168 HT = system: Bacillus subtilis 168 HT
[5] = system: Staphylococcus haemolyticus 527
Streptococcus uberis = system: Streptococcus uberis
Leuconostoc lactis = system: Leuconostoc lactis
[6] = system: Micrococcus luteus ATCC 9341
[7] = system: Staphylococcus epidermidis ATCC 14990
Bacillus subtilis C971 = system: Bacillus subtilis C971
[8] = system: Staphylococcus aureus SAP 0017
Escherichia coli DC2 = system: Escherichia coli DC2
[9] = system: Enterococcus faecalis C625
[10] = system: Pseudomonas aeruginosa H188
[11] = system: Pseudomonas aeruginosa H187
Escherichia coli UB1005 = system: Escherichia coli UB1005
[12] = system: Salmonella typhimurium C610
[13] = system: Corynebacterium xerosis C875
[14] = system: Staphylococcus epidermidis C621
[15] = system: Salmonella typhimurium C587
[16] = system: Staphylococcus aureus ATCC 25923
[17] = system: Staphylococcus aureus 930918-3
[18] = system: Staphylococcus aureus ATCC 33591
[19] = system: Escherichia coli ATCC 25922
[20] = system: Salmonella enterica subsp. enterica serovar Enteritidis
Yersinia enterocolitica = system: Yersinia enterocolitica
[21] = system: Staphylococcus aureus ATCC 43300
Escherichia coli = system: Escherichia coli
Salmonella sp. = system: Salmonella sp.
[22] = system: Staphylococcus aureus ATCC 29213
[23] = system: Staphylococcus epidermidis ATCC 12228
[24] = system: Pseudomonas aeruginosa ATCC 27853

MIC [1]: ≥ 1000 µM
MIC [2]: ≥ 1000 µM
SMILES: CC[C@H](C)[C@H](NC(=O)[C@H](CC(N)=O)NC(=O)[C@H](CCC(N)=O)NC(=O)[C@@H](N)Cc1cnc[nH]1)C(=O)NCC(=O)N[C@@H](CO)C(=O)N[C@@H](CO)C(=O)N[C@@H](CO)C(=O)N[C@@H](CO)C(=O)N1CCC[C@H]1C(=O)N[C@@H](CC(=O)O)C(=O)N[C@H](C(=O)N[C@@H](Cc1ccc(O)cc1)C(=O)O)[C@@H](C)CC [HQNIGSSSSPDIY]

MIC [3]: 10 µM (≈ 32.2 µg/mL)
MIC [4]: 19.9 µM (≈ 64.2 µg/mL)
MIC (Bacillus subtilis 168 HT): 10 µM (≈ 32.2 µg/mL)
SMILES: CC[C@H](C)[C@H](NC(=O)[C@H](Cc1cnc[nH]1)NC(=O)[C@@H](NC(=O)[C@H](CC(C)C)NC(=O)[C@@H](NC(=O)[C@@H](NC(=O)[C@H](CCCN=C(N)N)NC(=O)[C@H](CC(C)C)NC(=O)[C@H](Cc1c[nH]c2ccccc12)NC(=O)[C@H](CO)NC(=O)[C@H](CCCCN)NC(=O)[C@@H](NC(=O)[C@H](CC(C)C)NC(=O)[C@H](Cc1cnc[nH]1)NC(=O)[C@@H](NC(=O)[C@@H](NC(=O)[C@@H](NC(=O)[C@H](Cc1cnc[nH]1)NC(=O)[C@H](CC(C)C)NC(=O)[C@H](CCC(N)=O)NC(=O)[C@H](CCCCN)NC(=O)[C@H](Cc1ccccc1)NC(=O)[C@H](CO)NC(=O)[C@H](CCCCN)NC(=O)CNC(=O)[C@H](CCCCN)NC(=O)[C@@H](N)CCCCN)[C@@H](C)CC)[C@@H](C)CC)C(C)C)C(C)C)[C@@H](C)O)[C@@H](C)CC)[C@@H](C)O)C(=O)O [KKGKSFKQLHIIVHLVKSWLRTILTHI]
MIC [5]: 10 µM (≈ 32.2 µg/mL)

MIC (Streptococcus uberis): ≥ 50 µM
MIC (Leuconostoc lactis): 12 µM (≈ 26.3 µg/mL)
MIC [6]: ≥ 100 µM
MIC [7]: ≥ 100 µM
SMILES: CC[C@H](C)[C@H](NC(=O)[C@H](CC(C)C)NC(=O)[C@H](Cc1cnc[nH]1)NC(=O)CNC(=O)[C@@H](NC(=O)[C@@H](NC(=O)CNC(=O)[C@@H](NC(=O)[C@@H](NC(=O)[C@H](CCCCN)NC(=O)[C@@H]1CCCN1C(=O)[C@H](CC(C)C)NC(=O)[C@H](Cc1ccccc1)NC(=O)[C@H](CO)NC(=O)[C@H](CC(C)C)NC(=O)[C@H](CC(C)C)NC(=O)CN)C(C)C)[C@@H](C)CC)C(C)C)[C@@H](C)CC)C(=O)N[C@@H](Cc1cnc[nH]1)C(=O)N1CCC[C@H]1C(=O)N1CCC[C@H]1C(=O)N[C@@H](CO)C(=O)O [GLLSFLPKVIGVIGHLIHPPS]

MIC (Bacillus subtilis C971): 0.861 µM (≈ 2.54 µg/mL)
MIC [8]: 4.37 µM (≈ 12.9 µg/mL)
MIC (Escherichia coli DC2): 1.38 µM (≈ 4.06 µg/mL)
MIC [9]: 6.95 µM (≈ 20.5 µg/mL)
MIC [10]: 5.51 µM (≈ 16.2 µg/mL)
MIC [11]: 3.48 µM (≈ 10.2 µg/mL)
MIC (Escherichia coli UB1005): 2.2 µM (≈ 6.49 µg/mL)
MIC [12]: 1.38 µM (≈ 4.06 µg/mL)
MIC [13]: 0.689 µM (≈ 2.03 µg/mL)
MIC [14]: 1.38 µM (≈ 4.06 µg/mL)
MIC [15]: 6.95 µM (≈ 20.5 µg/mL)
MIC [16]: 5.51 µM (≈ 16.2 µg/mL)
SMILES: CC[C@H](C)[C@H](NC(=O)[C@H](C)NC(=O)[C@H](CCCCN)NC(=O)[C@H](CC(C)C)NC(=O)[C@H](C)NC(=O)[C@@H](NC(=O)[C@H](Cc1cnc[nH]1)NC(=O)[C@H](CC(C)C)NC(=O)[C@@H](NC(=O)[C@@H](NC(=O)[C@H](CCCCN)NC(=O)[C@@H](NC(=O)[C@H](C)NC(=O)[C@H](C)NC(=O)[C@H](CCCCN)NC(=O)[C@H](Cc1ccccc1)NC(=O)[C@@H](NC(=O)[C@H](CCCCN)NC(=O)[C@H](CC(C)C)NC(=O)[C@H](Cc1ccccc1)NC(=O)[C@H](CO)NC(=O)[C@H](CCCCN)NC(=O)[C@H](Cc1c[nH]c2ccccc12)NC(=O)[C@H](CCCCN)NC(C)=O)[C@@H](C)O)C(C)C)[C@@H](C)O)C(C)C)[C@@H](C)O)C(=O)N[C@@H](CO)C(=O)N[C@@H](CO)C(N)=O [KWKSFLKTFKAAVKTVLHTALKAISS]

MIC [17]: ≥ 127 µM
MIC [18]: ≥ 127 µM
SMILES: CC[C@H](C)[C@H](NC(=O)[C@H](CCCCN)NC(=O)[C@H](CCCCN)NC(=O)[C@H](CC(C)C)NC(=O)[C@H](CCCCN)NC(=O)[C@H](CCC(=O)O)NC(=O)[C@H](CCCCN)NC(=O)[C@@H](NC(=O)[C@@H](N)CCCCN)[C@@H](C)CC)C(=O)NCC(=O)N[C@@H](CCC(N)=O)C(=O)N[C@@H](CCCCN)C(=O)N[C@H](C(=O)N[C@@H](CCC(N)=O)C(=O)NCC(=O)N[C@@H](CC(C)C)C(=O)N[C@@H](CC(C)C)C(=O)O)[C@@H](C)CC [KIKEKLKKIGQKIQGLL]

MIC [3]: ≥ 100 µM
MIC [4]: ≥ 100 µM
MIC (Bacillus subtilis 168 HT): 22.4 µM (≈ 32.1 µg/mL)
SMILES: CC[C@H](C)[C@H](NC(=O)[C@H](CC(C)C)NC(=O)[C@@H](N)C(C)C)C(=O)N[C@@H](CCCN=C(N)N)C(=O)NCC(=O)N[C@@H](CC(C)C)C(=O)N[C@H](C(=O)N[C@@H](Cc1cnc[nH]1)C(=O)N[C@@H](CCSC)C(=O)N[C@@H](CC(C)C)C(=O)N[C@@H](CCCN=C(N)N)C(=O)NCC(=O)NCC(=O)O)[C@@H](C)CC [VLIRGLIHMLRGG]
MIC [5]: ≥ 100 µM

MIC [19]: 3.37 µM (≈ 6.25 µg/mL)
MIC [20]: 6.73 µM (≈ 12.5 µg/mL)
MIC (Yersinia enterocolitica): 3.37 µM (≈ 6.25 µg/mL)
MIC [21]: 13.5 µM (≈ 25 µg/mL)
MIC (Escherichia coli): 3.01 µM (≈ 5.59 µg/mL)
MIC (Salmonella sp.): 2.69 µM (≈ 5 µg/mL)
MIC [22]: 26.9 µM (≈ 50 µg/mL)
SMILES: CC[C@H](C)[C@H](NC(=O)[C@H](CCCCN)NC(=O)[C@@H](NC(=O)[C@H](CCC(N)=O)NC(=O)[C@@H](N)CCCN=C(N)N)[C@@H](C)CC)C(=O)N[C@@H](Cc1c[nH]c2ccccc12)C(=O)N[C@@H](CCCN=C(N)N)C(=O)N[C@@H](CCCN=C(N)N)C(=O)N[C@@H](CCSC)C(=O)N[C@@H](CCCCN)C(=O)N[C@@H](Cc1c[nH]c2ccccc12)C(=O)N[C@@H](CCCCN)C(=O)N[C@@H](CCCCN)C(N)=O [RQIKIWRRMKWKK]

MIC [19]: 8 µM (≈ 23.6 µg/mL)
MIC (Bacillus subtilis C971): 0.86 µM (≈ 2.54 µg/mL)
MIC [8]: 4.37 µM (≈ 12.9 µg/mL)
MIC (Escherichia coli DC2): 0.86 µM (≈ 2.54 µg/mL)
MIC [23]: 4 µM (≈ 11.8 µg/mL)
MIC [9]: 17.5 µM (≈ 51.5 µg/mL)
MIC [10]: 3.47 µM (≈ 10.2 µg/mL)
MIC [11]: 2.2 µM (≈ 6.49 µg/mL)
MIC (Escherichia coli UB1005): 0.86 µM (≈ 2.54 µg/mL)
MIC [12]: 0.688 µM (≈ 2.03 µg/mL)
MIC [13]: 0.55 µM (≈ 1.62 µg/mL)
MIC [14]: 1.38 µM (≈ 4.06 µg/mL)
MIC [15]: 2.2 µM (≈ 6.49 µg/mL)
MIC [16]: 5.5 µM and 8 µM
MIC [24]: 8 µM (≈ 23.6 µg/mL)
SMILES: CC[C@H](C)[C@H](NC(=O)[C@H](C)NC(=O)[C@H](CCCCN)NC(=O)[C@H](CC(C)C)NC(=O)[C@H](C)NC(=O)[C@@H](NC(=O)[C@H](Cc1cnc[nH]1)NC(=O)[C@H](CC(C)C)NC(=O)[C@@H](NC(=O)[C@@H](NC(=O)[C@H](CCCCN)NC(=O)[C@H](CO)NC(=O)[C@H](C)NC(=O)[C@H](CO)NC(=O)[C@H](CCCCN)NC(=O)[C@H](Cc1ccccc1)NC(=O)[C@@H](NC(=O)[C@H](CCCCN)NC(=O)[C@H](CC(C)C)NC(=O)[C@H](Cc1ccccc1)NC(=O)[C@H](CO)NC(=O)[C@H](CCCCN)NC(=O)[C@H](Cc1c[nH]c2ccccc12)NC(=O)[C@H](CCCCN)NC(C)=O)[C@@H](C)O)[C@@H](C)O)C(C)C)[C@@H](C)O)C(=O)N[C@@H](CO)C(=O)N[C@@H](CO)C(N)=O [KWKSFLKTFKSASKTVLHTALKAISS]

MIC [19]: > 50 µM
MIC [20]: ≥ 50 µM
MIC (Yersinia enterocolitica): ≥ 50 µM
MIC [21]: > 50 µM
MIC (Escherichia coli): > 50 µM
MIC (Salmonella sp.): ≥ 50 µM
MIC [24]: > 50 µM
MIC [22]: > 50 µM
SMILES: CC[C@H](C)[C@H](NC(=O)[C@H](CCC(N)=O)NC(=O)[C@@H](N)CCCN=C(N)N)C(=O)N[C@@H](CCCN=C(N)N)C(=O)N[C@@H](Cc1c[nH]c2ccccc12)C(=O)N[C@@H](CCC(N)=O)C(=O)N[C@@H](CCCN=C(N)N)C(N)=O [RQIRWQR]
